Reference: patent US9370520B2, “Macrocyclic LRRK2 kinase inhibitors” (IPSEN PHARMA S.A.S., priority 2011, dated 2016)

What was measured:
[1] = target: T1, truncated LRRK2 (GST tagged LRRK2 of amino acids 970-2527) (Homo sapiens, UniProt Q5S007); test: LRRKtide 32P-ATP peptide kinase assay (Protocol 1), truncated LRRK2; assay type: biochemical; details: 10 μM ATP, 200 μM lrrktide
T1 construct: GST tagged LRRK2 of amino acids 970-2527; GST
Experimental: (§1) The inhibition of LRRK2 and LRRK1 kinase was assessed using LRRK2 and LRRK1 recombinant protein in an in vitro peptide-based kinase assay.
(§2) LRRK2 protein is prepared as described in Daniëls et al. ((2011) J Neurochem 116, 304-315.). HEK293T cells are transfected with pCHMWS-3xflag-LRRK2 plasmid using polyethyleneimine and lysed after 48-72 hours in lysis buffer (Tris 20 mM pH 7.5, NaCl 150 mM, EDTA 1 mM, Triton 1%, Glycerol 10%, protease inhibitor cocktail). Lysates are cleared by centrifugation at 20,000 g for 10 minutes and incubated with normal mouse IgGs bound to agarose beads to remove proteins aspecifically binding to agarose or mouse IgGs. After removal of the IgG bead slurry, lysates are incubated for 3 to 18 hours with flagM2 bound to agarose beads. Beads are washed 4 times with wash buffer (Tris 25 mM pH 7.5, NaCl 400 mM, Triton 1%) and rinsed in kinase buffer (Tris-HCl 25 mM pH 7.5, 10 mM MgCl2, 2 mM dithiothreitol (DTT), 0.02% triton, 5 mM beta-glycerophosphate, 0.1 mM Na3VO4). Proteins are eluted in 5 volumes of kinase buffer containing 100 μg/ml 3xflag peptide. For assays using purified protein bound to affinity resin, affinity beads are resuspended in an equal volume of kinase buffer unless otherwise indicated. Purity and concentration are assessed by SDS-PAGE (3-8% tris-acetate SDS gel) and Coomassie Brilliant Blue staining or silver staining. Alternatively, a truncated LRRK2 enzyme (GST tagged LRRK2 of amino acids 970-2527) and a truncated LRRK2-G2019S (GST tagged LRRK2-G2019S of amino acids 970-2527) are used.
(§3) For Irrktide phosphorylation, recombinant LRRK2 is incubated with 6 μCi of 32P-ATP (3000 Ci/mmol), 200 μM Irrktide, 10 μM ATP and compound or solvent per 40 μl reaction for 30 minutes at 30° C. Compounds are tested at concentrations ranging from […]; the final amount of DMSO in the kinase reaction is 1%. Reactions are stopped and spotted to P81 phosphocellulose paper and washed 4×10 minutes in 75 mM phosphoric acid. Lrrktide phosphorylation levels are measured via autoradiography. Kinase assays are performed for each condition in triplicate.
(§4) LRRKtide phosphorylation levels are plotted vs. the log of the compound concentration and inhibition curves are fitted from which IC50 values are derived.

[2] = target: T2, truncated LRRK2-G2019S (GST tagged LRRK2-G2019S of amino acids 970-2527) (Homo sapiens, UniProt Q5S007, G2019S); test: LRRKtide 32P-ATP peptide kinase assay (Protocol 1), truncated LRRK2-G2019S; assay type: biochemical; details: 10 μM ATP, 200 μM lrrktide
T2 construct: GST tagged LRRK2-G2019S of amino acids 970-2527; GST
T2 sequence (Q5S007 970-2527 G2019S): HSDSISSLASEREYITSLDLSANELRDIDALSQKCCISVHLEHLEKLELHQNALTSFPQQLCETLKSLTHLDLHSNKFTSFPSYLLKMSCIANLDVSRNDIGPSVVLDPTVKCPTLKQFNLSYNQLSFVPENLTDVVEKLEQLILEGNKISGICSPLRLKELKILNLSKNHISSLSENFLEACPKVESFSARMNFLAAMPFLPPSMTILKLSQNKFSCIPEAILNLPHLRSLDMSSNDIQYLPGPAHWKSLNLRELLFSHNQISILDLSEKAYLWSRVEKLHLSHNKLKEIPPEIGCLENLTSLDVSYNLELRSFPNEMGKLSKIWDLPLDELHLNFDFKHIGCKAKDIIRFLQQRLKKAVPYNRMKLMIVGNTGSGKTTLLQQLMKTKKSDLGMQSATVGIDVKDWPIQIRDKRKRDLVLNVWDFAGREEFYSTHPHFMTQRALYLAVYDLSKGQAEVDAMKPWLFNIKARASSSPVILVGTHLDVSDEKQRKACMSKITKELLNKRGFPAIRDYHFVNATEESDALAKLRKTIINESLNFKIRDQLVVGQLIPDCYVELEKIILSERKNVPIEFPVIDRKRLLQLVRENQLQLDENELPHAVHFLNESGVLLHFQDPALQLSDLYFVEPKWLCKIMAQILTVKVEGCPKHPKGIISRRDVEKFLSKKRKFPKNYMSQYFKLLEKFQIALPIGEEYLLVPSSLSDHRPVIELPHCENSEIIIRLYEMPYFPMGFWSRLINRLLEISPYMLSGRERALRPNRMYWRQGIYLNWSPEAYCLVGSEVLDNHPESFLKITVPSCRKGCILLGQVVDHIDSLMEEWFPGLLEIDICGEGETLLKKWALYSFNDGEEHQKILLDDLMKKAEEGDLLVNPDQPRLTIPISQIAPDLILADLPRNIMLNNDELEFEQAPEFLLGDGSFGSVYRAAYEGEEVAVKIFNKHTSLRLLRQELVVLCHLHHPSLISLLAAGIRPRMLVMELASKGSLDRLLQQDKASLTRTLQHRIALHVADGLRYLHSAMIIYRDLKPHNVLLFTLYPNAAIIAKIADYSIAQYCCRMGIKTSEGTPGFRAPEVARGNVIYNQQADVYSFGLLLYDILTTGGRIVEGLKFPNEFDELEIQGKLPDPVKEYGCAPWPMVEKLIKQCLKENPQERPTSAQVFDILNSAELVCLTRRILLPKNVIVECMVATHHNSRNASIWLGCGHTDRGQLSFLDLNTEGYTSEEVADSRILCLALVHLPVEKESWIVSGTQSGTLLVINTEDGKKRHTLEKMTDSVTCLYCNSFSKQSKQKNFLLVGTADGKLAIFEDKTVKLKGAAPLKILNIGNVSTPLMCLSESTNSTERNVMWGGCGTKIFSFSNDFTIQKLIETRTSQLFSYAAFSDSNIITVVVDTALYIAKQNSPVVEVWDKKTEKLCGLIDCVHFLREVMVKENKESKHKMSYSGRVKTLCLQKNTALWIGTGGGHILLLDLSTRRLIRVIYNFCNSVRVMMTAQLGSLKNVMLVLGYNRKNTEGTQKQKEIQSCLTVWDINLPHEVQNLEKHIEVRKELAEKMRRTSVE
Experimental: as §1, §2, §3, §4

full-length LRRK2 = target: T3, full-length LRRK2 (Homo sapiens, UniProt Q5S007); test: LRRKtide 32P-ATP peptide kinase assay (Protocol 1), full-length LRRK2; assay type: biochemical; details: 10 μM ATP, 200 μM lrrktide
T3 construct: full-length; made in house; host or cells: HEK293T
T3 sequence (Q5S007 whole entry): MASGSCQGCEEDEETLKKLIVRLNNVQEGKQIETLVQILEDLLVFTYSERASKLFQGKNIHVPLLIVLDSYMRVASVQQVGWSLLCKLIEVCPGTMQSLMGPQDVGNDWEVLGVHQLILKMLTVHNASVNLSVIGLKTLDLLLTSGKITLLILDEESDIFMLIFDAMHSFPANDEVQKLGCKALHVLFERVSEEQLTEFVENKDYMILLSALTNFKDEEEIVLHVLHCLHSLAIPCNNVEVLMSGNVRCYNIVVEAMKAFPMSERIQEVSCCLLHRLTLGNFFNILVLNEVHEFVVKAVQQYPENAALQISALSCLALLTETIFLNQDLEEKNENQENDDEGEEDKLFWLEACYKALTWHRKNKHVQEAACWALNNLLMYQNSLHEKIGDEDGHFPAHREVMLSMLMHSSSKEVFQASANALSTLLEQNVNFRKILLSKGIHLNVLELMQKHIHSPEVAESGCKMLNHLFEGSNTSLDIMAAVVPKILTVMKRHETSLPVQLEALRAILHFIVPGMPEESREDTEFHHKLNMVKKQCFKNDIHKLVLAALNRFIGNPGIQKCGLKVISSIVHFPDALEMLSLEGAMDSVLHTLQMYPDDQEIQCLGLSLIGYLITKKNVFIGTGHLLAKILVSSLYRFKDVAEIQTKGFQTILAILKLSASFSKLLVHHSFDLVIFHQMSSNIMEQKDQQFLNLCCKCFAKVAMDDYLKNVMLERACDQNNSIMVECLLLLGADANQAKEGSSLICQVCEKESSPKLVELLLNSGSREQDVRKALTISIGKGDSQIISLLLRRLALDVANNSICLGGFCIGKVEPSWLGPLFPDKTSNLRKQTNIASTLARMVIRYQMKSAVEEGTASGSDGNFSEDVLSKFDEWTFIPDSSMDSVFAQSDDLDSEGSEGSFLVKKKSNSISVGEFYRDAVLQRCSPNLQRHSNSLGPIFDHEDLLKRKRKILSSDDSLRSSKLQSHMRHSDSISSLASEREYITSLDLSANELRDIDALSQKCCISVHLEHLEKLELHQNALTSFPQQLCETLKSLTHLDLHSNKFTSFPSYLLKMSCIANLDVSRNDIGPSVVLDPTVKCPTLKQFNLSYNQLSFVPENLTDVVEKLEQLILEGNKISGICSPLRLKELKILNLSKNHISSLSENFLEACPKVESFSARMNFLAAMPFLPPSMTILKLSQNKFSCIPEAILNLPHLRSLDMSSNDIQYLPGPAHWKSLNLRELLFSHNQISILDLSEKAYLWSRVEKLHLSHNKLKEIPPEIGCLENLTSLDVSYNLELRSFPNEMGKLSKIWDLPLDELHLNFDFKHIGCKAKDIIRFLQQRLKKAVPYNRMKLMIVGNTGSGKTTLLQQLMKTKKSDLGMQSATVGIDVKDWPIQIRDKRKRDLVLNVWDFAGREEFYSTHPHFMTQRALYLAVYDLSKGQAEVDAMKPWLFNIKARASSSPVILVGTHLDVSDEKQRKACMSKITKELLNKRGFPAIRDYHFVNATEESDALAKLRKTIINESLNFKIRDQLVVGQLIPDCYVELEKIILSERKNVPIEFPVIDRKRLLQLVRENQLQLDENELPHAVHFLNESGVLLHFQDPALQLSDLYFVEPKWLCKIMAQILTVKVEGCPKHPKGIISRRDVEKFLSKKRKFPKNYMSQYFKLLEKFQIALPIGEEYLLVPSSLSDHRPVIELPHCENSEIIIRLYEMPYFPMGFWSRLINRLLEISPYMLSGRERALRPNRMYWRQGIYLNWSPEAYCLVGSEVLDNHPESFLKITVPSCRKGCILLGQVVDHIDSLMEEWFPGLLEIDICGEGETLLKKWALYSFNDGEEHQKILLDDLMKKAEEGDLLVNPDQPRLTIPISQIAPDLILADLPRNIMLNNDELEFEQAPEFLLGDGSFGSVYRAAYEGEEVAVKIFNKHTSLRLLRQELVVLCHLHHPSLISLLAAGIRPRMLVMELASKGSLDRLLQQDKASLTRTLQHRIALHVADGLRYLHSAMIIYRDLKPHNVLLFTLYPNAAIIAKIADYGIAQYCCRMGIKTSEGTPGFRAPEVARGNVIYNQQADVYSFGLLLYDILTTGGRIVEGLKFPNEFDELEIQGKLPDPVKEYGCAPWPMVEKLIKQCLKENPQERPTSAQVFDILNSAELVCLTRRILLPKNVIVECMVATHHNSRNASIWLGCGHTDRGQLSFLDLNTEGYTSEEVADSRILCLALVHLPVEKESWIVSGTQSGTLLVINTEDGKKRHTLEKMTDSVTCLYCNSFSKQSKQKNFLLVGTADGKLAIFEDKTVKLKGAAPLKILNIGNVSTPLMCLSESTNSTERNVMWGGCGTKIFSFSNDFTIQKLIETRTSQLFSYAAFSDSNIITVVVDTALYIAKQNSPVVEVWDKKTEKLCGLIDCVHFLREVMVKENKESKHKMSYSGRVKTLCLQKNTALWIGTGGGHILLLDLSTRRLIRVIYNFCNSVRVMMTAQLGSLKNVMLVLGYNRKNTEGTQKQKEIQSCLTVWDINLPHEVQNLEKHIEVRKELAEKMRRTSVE
Experimental: as §1, §2
as §3, with “triplicate. […]” for “triplicate.”

T1 sequence (Q5S007 970-2527): as the sequence (Q5S007 970-2527 G2019S) above, with S1050G counted along it

| IC50 [1] [nM] | IC50 [2] [nM] | IC50 (full-length LRRK2) [nM] | melting point [°C] | Compound |
| --- | --- | --- | --- | --- |
| < 100 | < 100 | < 100 | > 300 | O=C1CCNc2ccn3ncc(c3n2)-c2cccc(c2)OCCN1 [Example 3] |
| 100 to 1000 | 100 to 1000 | 100 to 1000 | > 300 | CN1CCNc2ccn3ncc(c3n2)-c2cccc(c2)OCC1=O [Example 5] |
